In US20240409538A1, “SUBSTITUTED TRIAZOLOHETEROARYL COMPOUNDS AS USP1 INHIBITORS AND THE USE THEREOF” (IMPACT THERAPEUTICS (SHANGHAI), INC., priority 2021, published 2024):

What was measured:
[1] = system: BRCA mutant human breast cancer MDA-MB-436 cell line; assay: Growth inhibition of MDA-MB-436 cells, CTG (Celltiter-Glo) method; type: cell-based; details: MDA-MB-436, 168 h, 7 days incubation, read-out: IC50 (nM), inhibition of proliferation of MDA-MB-436 cells, CTG method
Experimental: (§1) The cells were cultured in complete medium (DMEM medium+10% FBS+Insulin+glutathione). When the confluence reached about 80%, cells were digested and gently dispensed from the bottom of the dish with a 1 mL pipette. Cell suspension was collected and centrifuged at 500 rpm for 3 min. The supernatant was discarded, and the cell pellet were re-suspended in complete medium. The cells were seeded into a culture dish at an appropriate proportion, and then cultured in a 5% CO2 incubator at 37° C. The assay was carried out when the cells were in optimum condition and the confluence was reached 80%. Cells in the logarithmic growth phase were taken to centrifugate, and the culture supernatant was removed. The cells were resuspended in refresh complete medium and counted. The resuspended cells were seeded at 3000/well in a 96-well plate and incubated at 37° C., 5% CO2 incubator overnight. The compound was prepared as below: 1000× dilution tested compound solution to 40× test compound solution by adding 5 μL 1000× compound solution to 120 μL Medium (25-fold dilution). The solution was mixed by oscillation, 0.1% DMSO was used as the control.
(§2) The next day, the 96-well plate inoculated with cells was taken out from the incubator, and the culture supernatant was removed. Then fresh medium of 195 uL/well and 5 μL/well of 40× test compound solution as mentioned above were added into the 96 well plate, respectively. Finally, the plate was incubated for 7 days in a 37° C. 5% CO2 incubator. The medium containing compound was changed on the fourth day.
CTG Method: After 7 days, 100 μL Celltiter-Glo reagent was added to each well, and then the plate was shake for 2 minutes to fully lysate. Then the plate was incubated at room temperature for 10 minutes, and the chemiluminescence values were read by plate reader.
The inhibitory activity of compounds on cell proliferation was plotted using cell survival rate against the compound concentration as coordinates. Cell inhibition rate %=(Lumcompound−LumDMSO)/(Lummedium−LumDMSO)×100. Lum refers to the chemiluminescence value.
XL Fit software was used to Fit nonlinear s-curve regression to Fit the data to obtain dose-effect curves, from which IC50 values were calculated. Y=Bottom+(Top−Bottom)/(1+10^((Log IC50−X)×slope)), Where Y is the cell inhibition rate, X is the compound concentration, Bottom is the lowest inhibition rate. Top is the highest inhibition rate.
Table 2 summarizes the inhibitory effect data (IC50) of the compounds on the proliferation of human breast cancer cells MDA-MB-436 determined by CTG method.

[2] = molecular target: USP1/UAF1 (Homo sapiens (Human), UniProt O94782); assay: USP1/UAF1 activity, ubiquitin-rhodamine110-glycine (Ub-Rho) assay; type: biochemical; details: 0.1 nM USP1/UAF1, 100 nM Ub-Rho, 120 minutes; read-out: IC50 (nM), inhibitory effects on USP1/UAF1 activity
Experimental: USP1/UAF1 activity was determined by using ubiquitin-rhodamine110-glycine (Ub-Rho; Boston Biochem) assay. Enzymatic reactions were conducted in an assay buffer (50 mM Tris-HCl, pH 7.8, 0.5 mM EDTA, 100 mM NaCl, 1 mM DTT, 0.01 BSA, and 0.01% Tween-20) that contained 0.1 nM USP1/UAF1. Each individual compound was tested at ten concentrations in the range of 0.0005 to 10 μM. The plates were incubated for 15 min to attain equilibrium, and then the enzymatic reaction was initiated by dispensing 10 μL of Ub-Rho solution (100 nM final concentration). After treating 120 minutes with Ub-Rho solution, the rhodamine fluorescence was acquired using a 480 nm excitation/540 nm emission filter set by using Envision instrument. The inhibition rate of the compound to USP1/UAF1 enzyme activity was calculated according to the following formula.
IC50 value is obtained by fitting the s-shaped dose response curve equation by using XL Fit software. The curve equation is Y=100/(1+10^(log C−log IC50)). C is the compound concentration.

[3] = system: BRCA mutant human breast cancer MDA-MB-436 cell line; assay: Growth inhibition of MDA-MB-436 cells, CCK-8 method; type: cell-based; details: MDA-MB-436, 168 h, 7 days incubation, read-out: IC50 (nM), inhibition of proliferation of MDA-MB-436 cells, CCK-8 method
Experimental: as §1, §2
CCK Method: After 7 days, 20 μL of CCK-8 was added to each well and shaken gently, then was cultured for 4 hours. The plate was shaken for 5 min after incubation, the absorbance values of 450 nm or 650 nm wavelengths were recorded respectively (OD=absorbance value of 450 nm−absorbance value of 650 nm) by using the multifunction readout instrument.
Data were analyzed by software GraphPad Prism 6.0. The inhibitory activity of compounds on cell proliferation was plotted using cell survival rate against the compound concentration as coordinates. Cell survival rate %=(ODcompound−ODbackground)/(ODDMSO−ODbackground)×100. The IC50 value was fitted by the s-shaped dose response curve equation: Y=100/(1+10^(log C−log IC50)), and C was the compound concentration.
Table 3 summarizes the inhibitory effect data (IC50) of the compounds on the proliferation of human breast cancer cells MDA-MB-436 determined by CCK-8 method.

Sequence of USP1/UAF1 (O94782 whole entry): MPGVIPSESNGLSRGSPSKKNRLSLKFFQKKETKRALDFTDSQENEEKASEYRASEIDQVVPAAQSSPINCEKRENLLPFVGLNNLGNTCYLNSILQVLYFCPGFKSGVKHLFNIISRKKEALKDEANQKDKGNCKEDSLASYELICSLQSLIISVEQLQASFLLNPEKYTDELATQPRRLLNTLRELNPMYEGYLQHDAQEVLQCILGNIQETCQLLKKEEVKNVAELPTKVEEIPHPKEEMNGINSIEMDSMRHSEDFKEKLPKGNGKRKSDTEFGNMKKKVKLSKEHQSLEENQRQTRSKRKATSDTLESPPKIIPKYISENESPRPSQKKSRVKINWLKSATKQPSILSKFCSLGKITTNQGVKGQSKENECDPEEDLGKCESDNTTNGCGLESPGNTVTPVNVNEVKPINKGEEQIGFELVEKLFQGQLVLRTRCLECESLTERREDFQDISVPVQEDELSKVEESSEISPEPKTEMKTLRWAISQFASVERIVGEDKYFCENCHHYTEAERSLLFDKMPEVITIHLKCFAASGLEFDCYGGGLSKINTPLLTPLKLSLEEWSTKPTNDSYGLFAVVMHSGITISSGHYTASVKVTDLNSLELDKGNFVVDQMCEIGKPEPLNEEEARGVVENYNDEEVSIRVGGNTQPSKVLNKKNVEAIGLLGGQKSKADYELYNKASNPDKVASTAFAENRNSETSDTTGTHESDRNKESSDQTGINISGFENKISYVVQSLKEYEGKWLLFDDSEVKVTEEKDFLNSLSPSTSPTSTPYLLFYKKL
Sequence of USP1/UAF1 (Q8TAF3 whole entry partner): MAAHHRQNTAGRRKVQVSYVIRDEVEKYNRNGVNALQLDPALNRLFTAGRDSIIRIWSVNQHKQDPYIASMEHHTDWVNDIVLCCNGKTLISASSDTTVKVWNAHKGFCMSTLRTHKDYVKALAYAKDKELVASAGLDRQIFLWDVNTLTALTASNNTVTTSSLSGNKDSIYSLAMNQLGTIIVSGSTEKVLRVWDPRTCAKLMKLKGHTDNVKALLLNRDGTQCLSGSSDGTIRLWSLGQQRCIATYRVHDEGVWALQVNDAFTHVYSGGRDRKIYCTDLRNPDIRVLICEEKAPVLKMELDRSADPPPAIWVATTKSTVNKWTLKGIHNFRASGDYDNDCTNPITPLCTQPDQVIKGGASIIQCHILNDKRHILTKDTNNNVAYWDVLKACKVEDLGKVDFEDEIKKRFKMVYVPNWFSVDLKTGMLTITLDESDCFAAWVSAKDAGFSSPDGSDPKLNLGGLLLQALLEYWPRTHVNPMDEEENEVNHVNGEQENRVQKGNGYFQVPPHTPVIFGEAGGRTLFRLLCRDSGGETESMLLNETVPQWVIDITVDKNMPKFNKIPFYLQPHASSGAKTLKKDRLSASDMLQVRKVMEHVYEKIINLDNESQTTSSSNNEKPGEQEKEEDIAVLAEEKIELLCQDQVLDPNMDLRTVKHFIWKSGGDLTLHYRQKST

Structure (SMILES) | IC50 [1] [nM] | IC50 [2] [nM] | IC50 [3] [nM]
COc1ncnc(C2CC2)c1-c1nc2nccc(Cc3ccc(-c4nc(C(F)(F)F)cn4C)cc3)n2n1 [Example 23, 2-(4-cyclopropyl-6-methoxypyrimidin-5-yl)-7-(4-(1-methyl-4-(trifluoromethyl)-1H-imidazol-2-yl)benzyl)-[1,2,4]triazolo[1,5-a]pyrimidine] | 496 | 175 | –
Cc1cn(C)c(-c2ccc(Cc3cccn4nc(-c5ccccc5C(C)C)nc34)cc2)n1 [Example 1, 8-(4-(1,4-dimethyl-1H-imidazol-2-yl)benzyl)-2-(2-isopropylphenyl)-[1,2,4]triazolo[1,5-a]pyridine] | 161 | – | –
COc1ncnc(C2CC2)c1-c1nc2c(Cc3ccc(-c4nc(C(F)(F)F)cn4C)cc3)cncn2n1 [Example 19, 2-(4-cyclopropyl-6-methoxypyrimidin-5-yl)-8-(4-(1-methyl-4-(trifluoromethyl)-1H-imidazol-2-yl)benzyl)-[1,2,4]triazolo[1,5-c]pyrimidine] | – | 138 | 44.8
COc1ncnc(OC)c1-c1nc2c(Cc3ccc(-c4nc(C(F)(F)F)cn4C)cc3)cccn2n1 [Example 27, 2-(4,6-dimethoxypyrimidin-5-yl)-8-(4-(1-methyl-4-(trifluoromethyl)-1H-imidazol-2-yl)benzyl)-[1,2,4]triazolo[1,5-a]pyridine] | 158 | – | –
COc1ncnc(C2CCC2)c1-c1nc2c(Cc3ccc(-c4nc(C(F)(F)F)cn4C)cc3)cccn2n1 [Example 28, 2-(4-cyclobutyl-6-methoxypyrimidin-5-yl)-8-(4-(1-methyl-4-(trifluoromethyl)-1H-imidazol-2-yl)benzyl)-[1,2,4]triazolo[1,5-a]pyridine] | 40.6 | 26 | –
COc1ncnc(C2CC2)c1-c1nc2c(Cc3ccc(-n4nc(C(F)(F)F)cc4C)cc3)cccn2n1 [Example 6, 2-(4-cyclopropyl-6-methoxypyrimidin-5-yl)-8-(4-(5-methyl-3-(trifluoromethyl)-1H-pyrazol-1-yl)benzyl)-[1,2,4]triazolo[1,5-a]pyridine] | – | 460 | 28.3
COc1ncnc(C2CC2)c1-c1nc2cccc(Cc3ccc(-c4nc(C(F)(F)F)cn4C)cc3)n2n1 [Example 14, 2-(4-cyclopropyl-6-methoxypyrimidin-5-yl)-5-(4-(1-methyl-4-(trifluoromethyl)-1H-imidazol-2-yl)benzyl)-[1,2,4]triazolo[1,5-a]pyridine] | 21.6 | 30.6 | 26.4
COc1ncnc(C2CC2)c1-c1nc2ccnc(Cc3ccc(-c4nc(C(F)(F)F)cn4C)c(F)c3)n2n1 [Example 41, 2-(4-cyclopropyl-6-methoxypyrimidin-5-yl)-5-(3-fluoro-4-(1-methyl-4-(trifluoromethyl)-1H-imidazol-2-yl)benzyl)-[1,2,4]triazolo[1,5-c]pyrimidine] | 55.3 | 34.2 | –
COc1ncnc(C2CC2)c1-c1nc2c(Cc3ccc(-c4nc(C(F)(F)F)cn4C(C)C)cc3)cccn2n1 [Example 4, 2-(4-cyclopropyl-6-methoxypyrimidin-5-yl)-8-(4-(1-isopropyl-4-(trifluoromethyl)-1H-imidazol-2-yl)benzyl)-[1,2,4]triazolo[1,5-a]pyridine] | – | 66.6 | 25.5
COc1ncnc(C2CC2)c1-c1nc2c(Cc3ccc(-c4nc(C(F)(F)F)cn4C)cc3)cccn2n1 [Example 5, 2-(4-cyclopropyl-6-methoxypyrimidin-5-yl)-8-(4-(1-methyl-4-(trifluoromethyl)-1H-imidazol-2-yl)benzyl)-[1,2,4]triazolo[1,5-a]pyridine] | – | 39.1 | 38.8
CC(C)c1ccccc1-c1nc2c(Cc3ccc(-c4nc(C(F)(F)F)cn4C)cc3)cccn2n1 [Example 3, 2-(2-isopropylphenyl)-8-(4-(1-methyl-4-(trifluoromethyl)-1H-imidazol-2-yl)benzyl)-[1,2,4]triazolo[1,5-a]pyridine] | 57.6 | – | 111
COc1ccccc1-c1nc2c(Cc3ccc(-c4nc(C)cn4C)cc3)cccn2n1 [Example 2, 8-(4-(1,4-dimethyl-1H-imidazol-2-yl)benzyl)-2-(2-methoxyphenyl)-[1,2,4]triazolo[1,5-a]pyridine] | > 1000 | – | –
COc1ncnc(C2CC2)c1-c1nc2ccnc(Cc3ccc(-c4nc(C(F)(F)F)cn4C4CC4)cc3)n2n1 [Example 40, 5-(4-(1-cyclopropyl-4-(trifluoromethyl)-1H-imidazol-2-yl)benzyl)-2-(4-cyclopropyl-6-methoxypyrimidin-5-yl)-[1,2,4]triazolo[1,5-c]pyrimidine] | 21.1 | 19.9 | –
Cc1cnn(C(C)C)c1-c1nc2c(Cc3ccc(-c4nc(C(F)(F)F)cn4C)cc3)cccn2n1 [Example 16, 2-(1-isopropyl-4-methyl-1H-pyrazol-5-yl)-8-(4-(1-methyl-4-(trifluoromethyl)-1H-imidazol-2-yl)benzyl)-[1,2,4]triazolo[1,5-a]pyridine] | – | 15.8 | 13.2
Cc1cnn(C(C)C)c1-c1nc2cccc(Cc3ccc(-c4nc(C(F)(F)F)cn4C)cc3)n2n1 [Example 15, 2-(1-isopropyl-4-methyl-1H-pyrazol-5-yl)-5-(4-(1-methyl-4-(trifluoromethyl)-1H-imidazol-2-yl)benzyl)-[1,2,4]triazolo[1,5-a]pyridine] | – | – | 10.3
COc1ncnc(C2CC2)c1-c1nc2cncc(Cc3ccc(-c4nc(C(F)(F)F)cn4C)cc3)n2n1 [Example 22, 2-(4-cyclopropyl-6-methoxypyrimidin-5-yl)-5-(4-(1-methyl-4-(trifluoromethyl)-1H-imidazol-2-yl)benzyl)-[1,2,4]triazolo[1,5-a]pyrazine] | 227 | 147 | –
